Experimental data: US11780845B2 (Relay Therapeutics, Inc., priority 2019, dated 2023)
pIC50: −log10 of the molar value.

Key:
FGFR2 = FGFR2 (Homo sapiens (Human), UniProt P21802); assay: FGFR2 Biochemical Caliper Assay
Description: Compounds of the present invention were also tested in a FGFR2 Biochemical Caliper Assay. Compounds were prepared in 10 mM DMSO solution and serially diluted into 11 concentrations by 3-fold dilution. […] 5 uL of ATP solution (100 uM) was added to start the reaction and the plate was incubated for 90 minutes, then 70 uL of stopping buffer (0.5M EDTA) was added to terminate the reaction. Each well was analyzed using EZ reader.

SNU16 cells = assay: SNU16 Cancer Cell Line Proliferation Assay; type: cell-based; details: Homo sapiens; SNU-16 cells
Summary of the method: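 SNU16 cells were seeded, held 24 h at 37 degrees, then dosed with an 11-point 3-fold dilution series prepared from a 10 mM DMSO stock. After 96 h incubation, viability was read by CellTiter Glo luminescence.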

Sequence of FGFR2 (P21802 22-821): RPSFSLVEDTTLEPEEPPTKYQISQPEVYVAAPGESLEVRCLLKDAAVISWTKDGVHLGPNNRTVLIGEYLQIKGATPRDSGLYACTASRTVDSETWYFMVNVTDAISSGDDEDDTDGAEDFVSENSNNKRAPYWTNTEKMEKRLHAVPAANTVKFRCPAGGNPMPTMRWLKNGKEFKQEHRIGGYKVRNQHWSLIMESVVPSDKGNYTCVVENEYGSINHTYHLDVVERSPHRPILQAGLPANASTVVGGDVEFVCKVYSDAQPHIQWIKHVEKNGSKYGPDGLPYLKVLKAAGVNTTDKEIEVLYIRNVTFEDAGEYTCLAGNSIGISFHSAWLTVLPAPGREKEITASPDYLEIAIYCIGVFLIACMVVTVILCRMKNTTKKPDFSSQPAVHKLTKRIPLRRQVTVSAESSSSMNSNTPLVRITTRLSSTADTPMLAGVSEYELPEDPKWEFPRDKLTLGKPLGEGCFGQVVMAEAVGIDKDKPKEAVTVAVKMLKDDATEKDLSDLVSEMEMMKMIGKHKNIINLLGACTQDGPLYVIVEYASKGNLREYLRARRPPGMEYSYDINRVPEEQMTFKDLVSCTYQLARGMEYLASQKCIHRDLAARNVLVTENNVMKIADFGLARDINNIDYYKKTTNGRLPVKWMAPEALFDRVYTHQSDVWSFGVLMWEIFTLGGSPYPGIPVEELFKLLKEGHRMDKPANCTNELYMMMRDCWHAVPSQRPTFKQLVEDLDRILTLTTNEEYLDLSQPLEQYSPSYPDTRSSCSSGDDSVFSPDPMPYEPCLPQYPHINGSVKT

SMILES | pIC50 (FGFR2) | pIC50 (SNU16 cells)
C=C(C)C(=O)Nc1ccc(-c2c(-c3ccc(Cn4nccc4C)cc3)c3c(N)ncnc3n2C)cc1 [Example 266] | 4.00 to 6.00 | 6.00 to 6.60
C=C(C)C(=O)Nc1ccc(-c2c(-c3ccc(Oc4ccn(C)n4)cc3)c3c(N)ncnc3n2C)cc1 [Example 267] | > 7.00 | ≥ 7.00
C=C(C)C(=O)Nc1ccc(-c2c(-c3ccc(C(=O)N(C)Cc4nc(C)no4)cc3)c3c(N)ncnc3n2C)cc1 [Example 270] | 6.00 to 6.60 | 6.00 to 6.60
C=C(C)C(=O)Nc1ccc(-c2c(-c3ccc(C(=O)N4CC5CC4C5)cc3)c3c(N)ncnc3n2C)cc1 [Example 272] | > 7.00 | ≥ 7.00
C=C(C)C(=O)Nc1ccc(-c2c(-c3ccc(Cn4ccc(C)n4)cc3)c3c(N)ncnc3n2C)cc1 [Example 274] | 6.60 to 7.00 | 6.00 to 6.60
C=CC(=O)Nc1ccc(-c2c(-c3ccc(Oc4ccn(C)n4)cc3)c3c(N)ncnc3n2C)cc1 [Example 276] | > 7.00 | ≥ 7.00
C=C(C)C(=O)Nc1ccc(-c2c(-c3ccc(C(=O)NCc4ncon4)cc3)c3c(N)ncnc3n2C)cc1 [Example 282] | 6.60 to 7.00 | 6.00 to 6.60
C=C(C)C(=O)Nc1ccc(-c2c(-c3ccc(C(=O)NC4CCOC4)cc3)c3c(N)ncnc3n2C)cc1 (stereo not shown) [Example 283] | > 7.00 | ≥ 7.00
C=C(C)C(=O)Nc1ccc(-c2c(-c3ccc(C(=O)NCC(C)(C)O)cc3)c3c(N)ncnc3n2C)cc1 [Example 288] | > 7.00 | 6.00 to 6.60
C=C(C)C(=O)Nc1ccc(-c2c(-c3ccc(C(=O)NC4COC4)cc3)c3c(N)ncnc3n2C)cc1 [Example 289] | 6.00 to 6.60 | 6.00 to 6.60
C=C(C)C(=O)Nc1ccc(-c2c(-c3ccc(C(=O)N[C@@H](CO)C4CC4)cc3)c3c(N)ncnc3n2C)cc1 [Example 290] | > 7.00 | 6.60 to 7.00
C=C(C)C(=O)Nc1ccc(-c2c(-c3ccc(C(=O)N4CC5CCC5C4)cc3)c3c(N)ncnc3n2C)cc1 (stereo not shown) [Example 291] | > 7.00 | ≥ 7.00
C=C(C)C(=O)Nc1ccc(-c2c(-c3ccc(C(=O)N4CCCC[C@@H]4C)cc3)c3c(N)ncnc3n2C)cc1 [Example 292] | > 7.00 | ≥ 7.00
C=C(C)C(=O)Nc1ccc(-c2c(-c3ccc(C(=O)N4CCCC[C@H]4C)cc3)c3c(N)ncnc3n2C)cc1 [Example 293] | > 7.00 | ≥ 7.00
C=C(C)C(=O)Nc1ccc(-c2c(-c3ccc(C(=O)N(C)Cc4cnn(C)c4)cc3)c3c(N)ncnc3n2C)cc1 [Example 294] | 4.00 to 6.00 | 6.00 to 6.60
C=C(C)C(=O)Nc1ccc(-c2c(-c3ccc(C(=O)Nc4ncon4)cc3)c3c(N)ncnc3n2C)cc1 [Example 295] | 4.00 to 6.00 | 6.00 to 6.60
C=CC(=O)Nc1ccc(-c2c(C3=CCC(C(=O)N(C)C)CC3)c3c(N)ncnc3n2C)cc1 (stereo not shown) [Example 296] | > 7.00 | ≥ 7.00
C=CC(=O)Nc1ccc(-c2c(C3=CCC(C(=O)N4CCCC4)CC3)c3c(N)ncnc3n2C)cc1 (stereo not shown) [Example 297] | > 7.00 | ≥ 7.00
C=CC(=O)Nc1ccc(-c2c(C3=CCC(C(=O)NC4CCCC4)CC3)c3c(N)ncnc3n2C)cc1 (stereo not shown) [Example 298] | > 7.00 | ≥ 7.00

SMILES | pIC50 (FGFR2) | pIC50 (SNU16 cells)
C=C(C)C(=O)Nc1ccc(-c2c(-c3ccc(C(=O)N4CC5CCC(C5)C4)cc3)c3c(N)ncnc3n2C)cc1 [Example 299] | > 7.00 | ≥ 7.00
C=C(C)C(=O)Nc1ccc(-c2c(-c3ccc(C(=O)N[C@@H]4CCOC4)cc3)c3c(N)ncnc3n2C)cc1 [Example 300] | > 7.00 | ≥ 7.00
C=C(C)C(=O)Nc1ccc(-c2c(-c3ccc(S(=O)(=O)NC4COC4)cc3)c3c(N)ncnc3n2C)cc1 [Example 301] | 4.00 to 6.00 | 6.00 to 6.60
C=CC(=O)Nc1ccc(-c2c(C3CCC(C(=O)NC)CC3)c3c(N)ncnc3n2C)cc1 (stereo not shown) [Example 302] | 4.00 to 6.00 | 6.00 to 6.60
C=C(C)C(=O)Nc1ccc(-c2c(-c3ccc(S(=O)(=O)NCC(C)C)cc3)c3c(N)ncnc3n2C)cc1 [Example 303] | 6.00 to 6.60 | 6.00 to 6.60
C=C(C)C(=O)Nc1ccc(-c2c(-c3ccc(C(=O)N(C)CC(F)(F)F)cc3)c3c(N)ncnc3n2C)cc1 [Example 304] | > 7.00 | ≥ 7.00
C=C(C)C(=O)Nc1ccc(-c2c(-c3ccc(C(=O)NCC(F)F)cc3)c3c(N)ncnc3n2C)cc1 [Example 305] | > 7.00 | ≥ 7.00
C=C(C)C(=O)Nc1ccc(-c2c(-c3ccc(C(=O)NCC(C)(C)OC)cc3)c3c(N)ncnc3n2C)cc1 [Example 306] | > 7.00 | ≥ 7.00
C=C(C)C(=O)Nc1ccc(-c2c(-c3ccc(C(=O)NCC(C)C)cc3)c3c(N)ncnc3n2C)cc1 [Example 307] | > 7.00 | ≥ 7.00
C=C(C)C(=O)Nc1ccc(-c2c(-c3ccc(C(=O)NC4CCCC4O)cc3)c3c(N)ncnc3n2C)cc1 (stereo not shown) [Example 308] | > 7.00 | 6.60 to 7.00
C=C(C)C(=O)Nc1ccc(-c2c(-c3ccc(S(=O)(=O)NC4CCCC4O)cc3)c3c(N)ncnc3n2C)cc1 (stereo not shown) [Example 309] | 4.00 to 6.00 | 6.00 to 6.60
C=C(C)C(=O)Nc1ccc(-c2c(-c3ccc(S(=O)(=O)NCC(C)(C)O)cc3)c3c(N)ncnc3n2C)cc1 [Example 310] | 4.00 to 6.00 | 6.00 to 6.60
C=C(C)C(=O)Nc1ccc(-c2c(-c3ccc(S(=O)(=O)NC4CCC4)cc3)c3c(N)ncnc3n2C)cc1 [Example 311] | 6.00 to 6.60 | 6.00 to 6.60
C=C(C)C(=O)Nc1ccc(-c2c(-c3ccc(S(=O)(=O)N(C)C4CCCC4)cc3)c3c(N)ncnc3n2C)cc1 [Example 312] | 6.00 to 6.60 | 6.00 to 6.60
C=C(C)C(=O)Nc1ccc(-c2c(-c3ccc(-c4ncco4)nc3)c3c(N)ncnc3n2C)cc1 [Example 313] | 4.00 to 6.00 | 6.00 to 6.60
C=C(C)C(=O)Nc1ccc(-c2c(-c3ccc(S(=O)(=O)CC4CCCC4)cc3)c3c(N)ncnc3n2C)cc1 [Example 314] | 6.00 to 6.60 | 6.00 to 6.60
C=C(C)C(=O)Nc1ccc(-c2c(-c3ccc(S(=O)(=O)CCC(F)(F)F)cc3)c3c(N)ncnc3n2C)cc1 [Example 315] | 6.00 to 6.60 | 6.00 to 6.60
C=C(C)C(=O)Nc1ccc(-c2c(-c3ccc(S(=O)(=O)N(C)CC(F)(F)F)cc3)c3c(N)ncnc3n2C)cc1 [Example 316] | 6.00 to 6.60 | 6.00 to 6.60
C=C(C)C(=O)Nc1ccc(-c2c(-c3ccc(S(=O)(=O)NC4CCCC4OC)cc3)c3c(N)ncnc3n2C)cc1 (stereo not shown) [Example 318] | 4.00 to 6.00 | 6.00 to 6.60

SMILES | pIC50 (FGFR2) | pIC50 (SNU16 cells)
C=C(C)C(=O)Nc1ccc(-c2c(-c3ccc(C(=O)NCC4CC4)cc3)c3c(N)ncnc3n2C)cc1 [Example 320] | > 7.00 | ≥ 7.00
C=C(C)C(=O)Nc1ccc(-c2c(-c3ccc(C(=O)NC4CCCC4OC)cc3)c3c(N)ncnc3n2C)cc1 (stereo not shown) [Example 321] | 6.60 to 7.00 | 6.60 to 7.00
C=C(C)C(=O)Nc1ccc(-c2c(-c3ccc(C(=O)N(C)Cc4ncon4)cc3)c3c(N)ncnc3n2C)cc1 [Example 324] | 4.00 to 6.00 | 6.00 to 6.60
C=C(C)C(=O)Nc1ccc(-c2c(-c3ccc(C(=O)NC4CCCOC4)cc3)c3c(N)ncnc3n2C)cc1 (stereo not shown) [Example 327] | > 7.00 | 6.60 to 7.00
C=C(C)C(=O)Nc1ccc(-c2c(-c3ccc(C(=O)N[C@@H](CO)CC4CC4)cc3)c3c(N)ncnc3n2C)cc1 [Example 329] | > 7.00 | 6.00 to 6.60
C=C(C)C(=O)Nc1ccc(-c2c(-c3ccc(C(=O)NCC(C)(C)CO)cc3)c3c(N)ncnc3n2C)cc1 [Example 331] | > 7.00 | ≥ 7.00
C=C(C)C(=O)Nc1ccc(-c2c(-c3ccc(C(=O)NCC(O)C(F)(F)F)cc3)c3c(N)ncnc3n2C)cc1 (stereo not shown) [Example 332] | > 7.00 | 6.00 to 6.60
C=C(C)C(=O)Nc1ccc(-c2c(-c3ccc(C(=C)N[C@H]4CCOC4)cc3)c3c(N)ncnc3n2C)cc1 [Example 335] | 6.00 to 6.60 | 6.00 to 6.60
C=C(C)C(=O)Nc1ccc(-c2c(-c3ccc(C(=O)NCC#N)cc3)c3c(N)ncnc3n2C)cc1 [Example 337] | 6.00 to 6.60 | 6.00 to 6.60
C=C(C)C(=O)Nc1ccc(-c2c(-c3ccc(C(=O)NCC4(F)COC4)cc3)c3c(N)ncnc3n2C)cc1 [Example 338] | > 7.00 | ≥ 7.00
C=C(C)C(=O)Nc1ccc(-c2c(-c3ccc(Oc4ncc(C)cn4)cc3)c3c(N)ncnc3n2C)cc1 [Example 339] | 6.60 to 7.00 | ≥ 7.00
C=C(C)C(=O)Nc1ccc(-c2c(-c3ccc(Oc4cccc(C)n4)cc3)c3c(N)ncnc3n2C)cc1F [Example 340] | > 7.00 | ≥ 7.00
C=C(C)C(=O)Nc1ccc(-c2c(-c3ccc(Oc4cccc(C)n4)cc3)c3c(N)ncnc3n2C)c(F)c1 [Example 341] | > 7.00 | ≥ 7.00
C=C(C)C(=O)Nc1ccc(-c2c(-c3ccc(Oc4cccc(OC)n4)cc3)c3c(N)ncnc3n2C)cc1 [Example 342] | > 7.00 | ≥ 7.00
C=C(C)C(=O)Nc1ccc(-c2c(-c3ccc(Oc4cccc(C)n4)cc3)c3c(N)ncnc3n2C)cc1OC [Example 344] | 6.60 to 7.00 | ≥ 7.00
C=C(C)C(=O)Nc1ccc(-c2c(-c3ccc(C(=O)N[C@@H](COC)C4CC4)cc3)c3c(N)ncnc3n2C)cc1 [Example 346] | > 7.00 | ≥ 7.00
C=C(C)C(=O)Nc1ccc(-c2c(-c3ccc(C(=O)NCC4CCO4)cc3)c3c(N)ncnc3n2C)cc1 (stereo not shown) [Example 348] | > 7.00 | 6.00 to 6.60
C=C(C)C(=O)Nc1ccc(-c2c(-c3ccc(C(=O)NCC4(OC)CCC4)cc3)c3c(N)ncnc3n2C)cc1 [Example 351] | > 7.00 | ≥ 7.00
